The values below come from patent US7452902B2, “Imidazopyridines as cyclin dependent kinase inhibitors” (Schering Corporation, priority 2002, dated 2008).

The target in the assay is T1, Cyclin E/CDK2 (Homo sapiens, UniProt P24941).
T1 construct: The expressed protein was approximately 34 kDa in size; made in house; host or cells: SF9 insect cells (baculovirus, pVL1393)
The experiment in a line: Cyclin E/CDK2 in vitro kinase assay (SPA, 33P-ATP, biotinylated Histone H1 peptide). Format: biochemical. As to conditions: recombinant cyclin E/CDK2 from SF9 cells; 1 hour at room temperature; 8 point serial dilutions in duplicate.

As usually defined, the IC50 is the concentration that gives 50% inhibition. Consider `Brc1cnc2c(NCc3cncnc3)cc(-c3ccccc3)cn12`, for which the IC50 was found to be 120 nM. The value for `Clc1ccccc1-c1cc(NCc2cncnc2)c2ncc(Br)n2c1` was 36 nM; that for `Nc1ncc(CNc2cc(-c3ccccc3Cl)cn3c(Br)cnc23)cn1` was 76 nM.
